# Test results reported in US9187497B2, “Substituted pyrido[3,2-e]pyrrolo[1,2-a]pyrazines as inhibitors of poly(ADP-ribose)polymerase (PARP)” (Takeda Phamaceutical Company Limited, priority 2009, dated 2015).
# Tests used:
# [1] = biological target: T1, catalytic domain of Human PARP (Homo sapiens, UniProt P09874); assay: Biacore surface plasmon resonance affinity assay (dissociation constant KD); assay type: binding; settings: pKD=-log(KD), KD in molar concentration; Biacore T100, 25° C.
# T1 construct: The catalytic domain of Human PARP was cloned and prepared; made in house
# T1 sequence (P09874 788-1014 limits assumed): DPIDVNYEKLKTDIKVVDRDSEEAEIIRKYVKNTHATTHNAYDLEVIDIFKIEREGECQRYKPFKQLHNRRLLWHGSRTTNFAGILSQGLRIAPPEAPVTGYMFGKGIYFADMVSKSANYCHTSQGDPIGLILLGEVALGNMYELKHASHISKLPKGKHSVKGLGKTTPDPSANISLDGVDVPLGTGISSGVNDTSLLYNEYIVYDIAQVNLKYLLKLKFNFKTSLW
# Description: Dissociation Constant (KD) from Surface Plasmon Resonance
# The catalytic domain of Human PARP was cloned and prepared as described in Kinoshita, T.; Nakanishi, I.; Warizaya, M.; Iwashita, A.; Kido, Y.; Hattori, K. and Fujii, T. 2006 FEBS Letters 556, 43-46. Purified enzyme was stored at −80° C. in 25 mM Tris(hydroxymethyl)aminomethane (Tris) pH 7.4, 150 mM NaCl, 2 mM dithiothreitol (DTT) at a concentration of 6 mg/ml.
# Biacore affinity assays for test compounds were conducted on a Biacore T100 (GE Healthcare) as follows. A Series S Sensor Chip CM5 (part number BR-1006-68, GE Healthcare) was activated for amide coupling with an Amine Coupling Kit (part number BR-1000-50, GE Healthcare) as described by the manufacturer. The mobile phase buffer consisted of Biacore buffer HBS-P (part number BR-1003-68, GE Healthcare) supplemented with 1% v/v dimethylsulfoxide (DMSO), 0.5 mM Tris(2-carboxyethyl)phosphine hydrochloride (TCEP), and 5 mM MgCl2. Enzyme samples (2 μl/6 mg/ml) stored at −80° C. were diluted to 0.080 mg/ml with 10 mM 4-morpholineethanesulfonic acid (MES) pH 6.5 and then mounted on the activated Biacore CM5 chip at a flow rate of 10 μl/min for 240 seconds. When successfully mounted, a signal of approximately 8,000 reflective units was observed. Test compounds were diluted 9 times 2-fold serially in mobile phase buffer (listed above) at 1% v/v DMSO final to generate a concentration gradient bracketing their anticipated KDs. Biacore mounted PARP was given a 1 minute exposure (association phase) to various concentrations of test compounds to observe a steady state equilibrium or an on rate. The exposure was followed with a dissociation phase of 5 minutes. The association and dissociation phases were at a flow rate of 50 μl/min and a temperature of 25° C.
# Parameters Rmax (response at saturation) and KD (binding constant) were calculated through a nonlinear least squares fitting of the equation to the data by use of the Biacore T100 analysis software.
# Parameter optimization was through a nonlinear least squares analysis of the association phase Response=Rmax*(1−exp(−(kon[cmpd]+koff)*t)) and dissociation phase Response=[…] by use of the Biacore T100 analysis software. The binding constant KD was calculated from the definition KD=koff/kon
# Jurkat cell line = assay: PARP cellular chemopotentiation assay (MTS cell viability with and without TMZ); assay type: cell-based; settings: ratio of EC50 for inhibition of cell viability without and with 100 μM TMZ; Jurkat cells, 96 hours of treatment
# Outline: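 Jurkat cells, 10,000/well, pre-cultured 24 h, then treated 96 h with serial compound dilutions (0.5% DMSO) with or without 100 μM TMZ. Viability by MTS conversion (OD490), normalized to DMSO controls; EC50 from curve fits, PF50 = EC50 without TMZ / EC50 with TMZ.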
# PARP = biological target: T2, PARP (Homo sapiens, UniProt P09874); assay: PARP ELISA colorimetric assay of inhibition of PARP catalytic activity (IC50); assay type: biochemical; settings: pIC50=-log(IC50), IC50 in molar concentration; ELISA-based PARP kit, 10 minutes of catalysis
# T2 construct: purchased Trevigen 4684-096-01 (enzyme); kit 4684-096-K HT
# T2 sequence (P09874 whole entry): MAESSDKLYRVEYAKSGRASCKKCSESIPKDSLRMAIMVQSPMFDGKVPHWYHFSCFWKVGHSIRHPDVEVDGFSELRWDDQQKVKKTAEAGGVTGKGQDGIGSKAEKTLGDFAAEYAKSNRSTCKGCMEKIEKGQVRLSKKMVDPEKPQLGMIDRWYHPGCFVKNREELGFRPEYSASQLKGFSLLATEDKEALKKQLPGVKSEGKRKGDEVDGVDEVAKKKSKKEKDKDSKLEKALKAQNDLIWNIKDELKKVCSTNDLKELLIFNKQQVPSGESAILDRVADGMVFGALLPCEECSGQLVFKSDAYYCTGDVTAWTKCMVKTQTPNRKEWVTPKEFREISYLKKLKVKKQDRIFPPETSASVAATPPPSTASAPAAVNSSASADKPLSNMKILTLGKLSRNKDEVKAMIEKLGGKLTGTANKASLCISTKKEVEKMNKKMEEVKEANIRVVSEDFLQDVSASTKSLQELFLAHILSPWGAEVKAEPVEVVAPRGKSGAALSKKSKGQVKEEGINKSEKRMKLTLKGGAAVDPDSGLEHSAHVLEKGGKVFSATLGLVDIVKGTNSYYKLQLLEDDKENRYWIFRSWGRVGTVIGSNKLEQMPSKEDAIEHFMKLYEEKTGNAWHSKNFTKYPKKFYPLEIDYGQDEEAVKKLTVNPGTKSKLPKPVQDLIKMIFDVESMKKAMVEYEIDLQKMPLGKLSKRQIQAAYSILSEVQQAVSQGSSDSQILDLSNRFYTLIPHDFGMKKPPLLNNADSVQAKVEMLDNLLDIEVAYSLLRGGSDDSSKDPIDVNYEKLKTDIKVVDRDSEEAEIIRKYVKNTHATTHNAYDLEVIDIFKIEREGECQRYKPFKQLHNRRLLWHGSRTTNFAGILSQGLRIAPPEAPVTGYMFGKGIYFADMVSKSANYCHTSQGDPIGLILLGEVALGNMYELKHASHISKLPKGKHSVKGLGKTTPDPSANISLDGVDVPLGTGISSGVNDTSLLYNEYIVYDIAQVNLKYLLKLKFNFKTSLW
# Outline: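 Human PARP was added as a 0.1 nM solution to histone-coated wells with compound for a 10-min ambient preincubation. The reaction was started with 100 μM NAD+ solution plus activated DNA and run 10 min. PAR formation was detected by anti-PAR ELISA, colorimetric. IC50 came from a 12-point, 3-fold gradient fitted by nonlinear least squares to a Hill equation.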
Structure (SMILES),Kd [1] [nM],PF50 (Jurkat cell line),melting point [°C],IC50 (PARP) [nM]
"O=C1Nc2cc(CN3CC=C(c4ccc(Cl)cc4)CC3)cnc2N2CCC[C@@H]12 [Compound 2, (S)-3-((4-(4-chlorophenyl)-5,6-dihydropyridin-1(2H)-yl)methyl)-6a,7,8,9-tetrahydropyrido[3,2-e]pyrrolo[1,2-a]pyrazin-6(5H)-one]",< 31.6,>2000,234 to 235,
"N#Cc1ccc(N2CCN(Cc3cnc4c(c3)NC(=O)[C@@H]3CCCN43)CC2)cc1 [Compound 4, (S)-4-(4-((6-oxo-5,6,6a,7,8,9-hexahydropyrido[3,2-e]pyrrolo[1,2-a]pyrazin-3-yl)methyl)piperazin-1-yl)benzonitrile]",,>2000,252,15.8 to 39.8
"N#Cc1ccc(N2CCN(Cc3cnc4c(c3)NC(=O)[C@@H]3CCCN43)CC2)nc1 [Compound 5, (S)-6-(4-((6-oxo-5,6,6a,7,8,9-hexahydropyrido[3,2-e]pyrrolo[1,2-a]pyrazin-3-yl)methyl)piperazin-1-yl)nicotinonitrile]",< 31.6,>5000,252 to 256,15.8 to 39.8
"O=C(NC1CC1)c1ccc(N2CCN(Cc3cnc4c(c3)NC(=O)[C@@H]3CCCN43)CC2)cc1 [Compound 13, (S)—N-cyclopropyl-4-(4-((6-oxo-5,6,6a,7,8,9-hexahydropyrido[3,2-e]pyrrolo[1,2-a]pyrazin-3-yl)methyl)piperazin-1-yl)benzamide]",,>5000,265 to 268,15.8 to 39.8
"N#Cc1ccc(N2CCN(Cc3cnc4c(c3)NC(=O)[C@@H]3CCCCN43)CC2)cc1 [Compound 71, (S)-4-(4-((6-oxo-6,6a,7,8,9,10-hexahydro-5H-dipyrido[1,2-a:3′,2′-e]pyrazin-3-yl)methyl)piperazin-1-yl)benzonitrile]",,>500,212.2,≤ 12.6
"CCNC(=O)c1ccc(N2CCN(Cc3cnc4c(c3)NC(=O)[C@@H]3CCCCN43)CC2)cc1 [Compound 73, (S)—N-ethyl-4-(4-((6-oxo-6,6a,7,8,9,10-hexahydro-5H-dipyrido[1,2-a:3′,2′-e]pyrazin-3-yl)methyl)piperazin-1-yl)benzamide]",,>2000,232.6,≤ 12.6
"CCOC(=O)c1ccc(N2CCN(Cc3cnc4c(c3)NC(=O)[C@@H]3CCCN43)CC2)cc1 [Compound 101, (S)-ethyl 4-(4-((6-oxo-5,6,6a,7,8,9-hexahydropyrido[3,2-e]pyrrolo[1,2-a]pyrazin-3-yl)methyl)piperazin-1-yl)benzoate]",,>10,242,≥ 50.1
"O=C1Nc2cc(CN3CCN(c4ccc(C(=O)N5CCCC5)cc4)CC3)cnc2N2CCC[C@@H]12 [Compound 138, (S)-3-((4-(4-(pyrrolidine-1-carbonyl)phenyl)piperazin-1-yl)methyl)-6a,7,8,9-tetrahydropyrido[3,2-e]pyrrolo[1,2-a]pyrazin-6(5H)-one]",,≧0,121.3,≥ 50.1
"CN(C)C(=O)c1ccc(N2CCN(Cc3cnc4c(c3)NC(=O)[C@@H]3CCCN43)CC2)cc1 [Compound 139, (S)—N,N-dimethyl-4-(4-((6-oxo-5,6,6a,7,8,9-hexahydropyrido[3,2-e]pyrrolo[1,2-a]pyrazin-3-yl)methyl)piperazin-1-yl)benzamide]",,≧0,99.2,≥ 50.1
"CCN(C)C(=O)c1ccc(N2CCN(Cc3cnc4c(c3)NC(=O)[C@@H]3CCCN43)CC2)cc1 [Compound 140, (S)—N-ethyl-N-methyl-4-(4-((6-oxo-5,6,6a,7,8,9-hexahydropyrido[3,2-e]pyrrolo[1,2-a]pyrazin-3-yl)methyl)piperazin-1-yl)benzamide]",,≧0,91.9,≥ 50.1
"Cc1cc(C(=O)NC2CC2)ccc1N1CCN(Cc2cnc3c(c2)NC(=O)[C@@H]2CCCN32)CC1 [Compound 142, (S)—N-cyclopropyl-3-methyl-4-(4-((6-oxo-5,6,6a,7,8,9-hexahydropyrido[3,2-e]pyrrolo[1,2-a]pyrazin-3-yl)methyl)piperazin-1-yl)benzamide]",,>2000,226.7 to 233.5,≤ 12.6
